Earlier results, collected in patent US6638541B1, “Sexual desire and performance enhancement with protein-bound tryptophan” (priority 2002, dated 2003).

Experiments:
plasma albumin = molecular target: T1, plasma albumin (Homo sapiens, UniProt P02768); details: after absorption, circulating in the blood
T1 construct: host or cells: blood plasma in vivo (endogenous circulating albumin)

[1] = higher dosages (greater than 12 gm per day); Hartmann, 1977

T1 sequence (P02768 25-609): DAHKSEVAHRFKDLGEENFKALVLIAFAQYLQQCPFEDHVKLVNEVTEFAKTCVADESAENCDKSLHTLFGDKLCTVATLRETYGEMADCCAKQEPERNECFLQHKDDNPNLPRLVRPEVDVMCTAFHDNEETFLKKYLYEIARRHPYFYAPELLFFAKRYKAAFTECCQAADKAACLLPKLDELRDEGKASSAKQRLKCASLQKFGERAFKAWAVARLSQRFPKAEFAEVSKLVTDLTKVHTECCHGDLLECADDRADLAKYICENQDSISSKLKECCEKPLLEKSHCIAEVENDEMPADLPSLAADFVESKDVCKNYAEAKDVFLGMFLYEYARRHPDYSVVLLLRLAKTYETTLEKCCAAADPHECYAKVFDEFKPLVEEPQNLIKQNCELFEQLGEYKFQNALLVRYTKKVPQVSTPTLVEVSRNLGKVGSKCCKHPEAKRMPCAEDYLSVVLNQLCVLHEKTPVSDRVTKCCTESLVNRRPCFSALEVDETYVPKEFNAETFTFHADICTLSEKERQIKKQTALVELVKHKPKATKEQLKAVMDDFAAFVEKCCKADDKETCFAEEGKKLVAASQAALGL

In the case of `N[C@@H](Cc1c[nH]c2ccccc12)C(=O)O` [tryptophan], the “fraction circulating as free tryptophan” value (plasma albumin) is listed as 20%, the “fraction of tryptophan in blood bound to plasma albumin” value (plasma albumin) is listed as “approximately 80%” and the most frequent complaints [1] is listed as “daytime sedation and nausea”. The “dose at which the hypnotic dose-response curve plateaus” value (sleep / sleep latency; fairly flat dose-response curve, Schneider-Helmut and Spinweber, 1986) was “approximately 1000 mg” and the “dose sufficient to produce improved sleep” value (sleep / sleep latency; given alone, people with mild insomnia or longer-than-average sleep latency) was 250 mg.
